Like-named read-outs stand apart in the source and are kept apart here. Where only a bound is given, the exact number is not on record here.

30 compounds from US11083717B2, “Compositions and methods for drug sensitization of parasites” (The Texas A&M University System, priority 2015, dated 2021) can be followed below.

One data set concerns S. cerevisiae. The experiment in a line: in vitro. Particulars: Saccharomyces cerevisiae. The source says: (§1) These tests included an IL-12 mouse model test to determine compound efficacy, verification of MIC50 for CP, cytotoxicity test for fibroblasts and yeast to determine potential toxic effects, a Human ether-a-go-go-related gene (hERG) test to determine potential cardiotoxicity, an AMES test tp determine mutagenic potential, a Safety Screen 44 test to determine common negative off-target drug interastion (Eurofins Cerep, SA, France), a cytochrome P450 (CYP) test to determine potential liver toxicity, a maximum tolerated dose, test, a Pharmacokinetics (PK) test to determine fate of the substance administered to a living organism tests for plasma stability in human and mouse, to measure the degradation of compound in plasma MClint and HClint test to determine in vitro intrinsic clearance for Mouse and Human, and kinetic solubility and plasma protein binding tests in mouse and human.

The subject of a further data set is human fibroblast. The experiment in a line: in vitro.
Source text: as §1

As to `O=C(O)Cn1ccc(Oc2nc3ccc(F)cc3s2)cc1=O` [NZ-418, 2-{4-[(6-fluoro-1,3-benzothiazol-2-yl)oxy]-2-oxo-1,2-dihydropyridin-1-yl}acetic acid], in the data set with S. cerevisiae, the “concentrations at which not toxic, S. cerevisiae cytotoxicity testing” value was ≥ 100 µM. In the data set on human fibroblast (human), the “concentrations at which not toxic, human fibroblast cytotoxicity testing” value was ≥ 100 µM.

With `CC(=O)Nc1ccc(Oc2nc3ccc(F)cc3s2)cc1` [NZ-420, N-{4-[(6-fluoro-1,3-benzothiazol-2-yl)oxy]phenyl}acetamide], the “concentrations at which not toxic, S. cerevisiae cytotoxicity testing” value in the data set on S. cerevisiae is ≥ 100 µM. Also, the “concentrations at which not toxic, human fibroblast cytotoxicity testing” value in the data set on human fibroblast (human) is ≥ 100 µM.

`COC(=O)C(C)(C)Oc1ccc(Oc2nc3ccc(Cl)cc3s2)cc1` [NZ-317, methyl 2-{4-[(6-chloro-1,3-benzothiazol-2-yl)oxy]phenoxy}-2-methylpropanoate]: in the data set on S. cerevisiae, the “concentrations at which not toxic, S. cerevisiae cytotoxicity testing” value is ≥ 100 µM. Moreover, the “concentrations at which not toxic, human fibroblast cytotoxicity testing” value in the data set on human fibroblast (human) is ≥ 100 µM.

Regarding `CNC(=O)C(C)c1ccc(Oc2nc3ccc(F)cc3s2)cc1O` (stereo not drawn) [NZ-408, 2-{4-[(6-fluoro-1,3-benzothiazol-2-yl)oxy]-2-hydroxyphenyl}-N-methylpropanamide], the “concentrations at which not toxic, S. cerevisiae cytotoxicity testing” value in the data set with S. cerevisiae is ≥ 100 µM. The “concentrations at which not toxic, human fibroblast cytotoxicity testing” value in the data set with human fibroblast (human) is ≥ 100 µM.

As to `CONC(=O)C(C)c1ccc(Oc2nc3ccc(F)cc3s2)cc1` (stereo not drawn) [NZ-330, 2-{4-[(6-fluoro-1,3-benzothiazol-2-yl)oxy]phenyl}-N-methoxypropanamide], the “concentrations at which not toxic, S. cerevisiae cytotoxicity testing” value in the data set on S. cerevisiae is ≥ 100 µM. Besides, in the data set with human fibroblast (human), the “concentrations at which not toxic, human fibroblast cytotoxicity testing” value was ≥ 100 µM.

Consider `CC(C(=O)N1CCN(C2COC2)CC1)c1ccc(Oc2nc3ccc(Cl)cc3s2)cc1` (stereo not drawn) [NZ-513, 2-{4-[(6-chloro-1,3-benzothiazol-2-yl)oxy]phenyl}-1-[4-(oxetan-3-yl)piperazin-1-yl]propan-1-one], for which the “concentrations at which not toxic, S. cerevisiae cytotoxicity testing” value in the data set with S. cerevisiae is ≥ 100 µM. In addition, the “concentrations at which not toxic, human fibroblast cytotoxicity testing” value in the data set on human fibroblast (human) was ≥ 100 µM.

As to `COC(=O)C(O)c1ccc(Oc2nc3ccc(Cl)cc3s2)cc1` (stereo not drawn) [NZ-336, methyl 2-{4-[(6-chloro-1,3-benzothiazol-2-yl)oxy]phenyl}-2-hydroxyacetate], the “concentrations at which not toxic, S. cerevisiae cytotoxicity testing” value with S. cerevisiae lay within 50 to 100 µM. In addition, the “concentrations at which not toxic, human fibroblast cytotoxicity testing” value in the data set with human fibroblast (human) is 50 to 100 µM.

`Nc1ccc(Oc2nc3ccc(F)cc3s2)cc1` [NZ-413, 4-[(6-fluoro-1,3-benzothiazol-2-yl)oxy]aniline]: in the data set with S. cerevisiae, the “concentrations at which not toxic, S. cerevisiae cytotoxicity testing” value is ≥ 100 µM. In the data set on human fibroblast (human), the “concentrations at which not toxic, human fibroblast cytotoxicity testing” value was ≥ 100 µM.

With `CC(C)NC(=O)Nc1ccc(Oc2nc3cc(F)c(F)cc3s2)cc1` [NZ-382, 1-{4-[(5,6-difluoro-1,3-benzothiazol-2-yl)oxy]phenyl}-3-(propan-2-yl)urea], in the data set with S. cerevisiae, the “concentrations at which not toxic, S. cerevisiae cytotoxicity testing” value lay in the range of 50 to 100 µM. The “concentrations at which not toxic, human fibroblast cytotoxicity testing” value in the data set with human fibroblast (human) was ≥ 100 µM.

For `O=C(O)Cc1ccc(Oc2cnc3cc(Cl)ccc3n2)cc1` [NZ-298, 2-{4-[(6-chloroquinoxalin-2-yl)oxy]phenyl}acetic acid], the “concentrations at which not toxic, S. cerevisiae cytotoxicity testing” value with S. cerevisiae is ≥ 100 µM. The “concentrations at which not toxic, human fibroblast cytotoxicity testing” value with human fibroblast (human) was ≥ 100 µM.

For the compound `CONC(=O)Cc1ccc(Oc2nc3ccc(F)cc3s2)cc1` [NZ-300, 2-{4-[(6-fluoro-1,3-benzothiazol-2-yl)oxy]phenyl}-N-methoxyacetamide], the “concentrations at which not toxic, S. cerevisiae cytotoxicity testing” value with S. cerevisiae was ≥ 100 µM. Moreover, in the data set on human fibroblast, the “concentrations at which not toxic, human fibroblast cytotoxicity testing” value is ≥ 100 µM.

On to `CC(C)NC(=O)Nc1ccc(Oc2nc3ccc(C(F)(F)F)cc3s2)cc1` [NZ-379, 3-(propan-2-yl)-1-(4-{[6-(trifluoromethyl)-1,3-benzothiazol-2-yl]oxy}phenyl)urea], for which the “concentrations at which not toxic, S. cerevisiae cytotoxicity testing” value in the data set on S. cerevisiae is ≥ 100 µM. For the same compound, in the data set on human fibroblast (human), the “concentrations at which not toxic, human fibroblast cytotoxicity testing” value was ≥ 100 µM.

With `CCNC(=O)COc1ccc(Oc2cnc3cc(Cl)ccc3n2)cc1` [NZ-306, 2-{4-[(6-chloroquinoxalin-2-yl)oxy]phenoxy}-N-ethylacetamide], in the data set with S. cerevisiae, the “concentrations at which not toxic, S. cerevisiae cytotoxicity testing” value is ≥ 100 µM. Besides, the “concentrations at which not toxic, human fibroblast cytotoxicity testing” value with human fibroblast is ≥ 100 µM.

For `CONC(=O)C(C)(C)Oc1ccc(Oc2cnc3cc(Cl)ccc3n2)cc1` [NZ-316, 2-{4-[(6-chloroquinoxalin-2-yl)oxy]phenoxy}-N-methoxy-2-methylpropanamide], the “concentrations at which not toxic, S. cerevisiae cytotoxicity testing” value in the data set on S. cerevisiae is ≥ 100 µM. Besides, in the data set with human fibroblast (human), the “concentrations at which not toxic, human fibroblast cytotoxicity testing” value was ≥ 100 µM.

`CONC(=O)C(C)(C)Oc1ccc(Oc2nc3ccc(Cl)cc3s2)cc1` [NZ-319, 2-{4-[(6-chloro-1,3-benzothiazol-2-yl)oxy]phenoxy}-N-methoxy-2-methylpropanamide]: the “concentrations at which not toxic, S. cerevisiae cytotoxicity testing” value in the data set on S. cerevisiae was ≥ 100 µM. Moreover, the “concentrations at which not toxic, human fibroblast cytotoxicity testing” value in the data set with human fibroblast (human) is ≥ 100 µM.

For `O=C(O)Cc1c(F)cc(Oc2nc3ccc(Cl)cc3s2)cc1F` [NZ-458, 2-{4-[(6-chloro-1,3-benzothiazol-2-yl)oxy]-2,6-difluorophenyl}acetic acid], in the data set on S. cerevisiae, the “concentrations at which not toxic, S. cerevisiae cytotoxicity testing” value is ≥ 100 µM. In addition, in the data set with human fibroblast (human), the “concentrations at which not toxic, human fibroblast cytotoxicity testing” value is ≥ 100 µM.

With `CC(C)NC(=O)Cc1ccc(Oc2nc3ccc(F)cc3s2)cc1O` [NZ405, 2-{4-[(6-fluoro-1,3-benzothiazol-2-yl)oxy]-2-hydroxyphenyl}-N-(propan-2-yl)acetamide], the “concentrations at which not toxic, S. cerevisiae cytotoxicity testing” value in the data set with S. cerevisiae was ≥ 100 µM. Further, in the data set with human fibroblast, the “concentrations at which not toxic, human fibroblast cytotoxicity testing” value is ≥ 100 µM.

With `CNC(=O)Cc1ccc(Oc2nc3ccc(Cl)cc3s2)cc1` [NZ-383], the “concentrations at which not toxic, S. cerevisiae cytotoxicity testing” value in the data set with S. cerevisiae was ≥ 100 µM. Moreover, in the data set on human fibroblast, the “concentrations at which not toxic, human fibroblast cytotoxicity testing” value was ≥ 100 µM.

Regarding `CC(C)NC(=O)N(C)c1ccc(Oc2nc3ccc(Cl)cc3s2)cc1` [NZ-388, 1-{4-[(6-chloro-1,3-benzothiazol-2-yl)oxy]phenyl}-1-methyl-3-(propan-2-yl)urea], in the data set on S. cerevisiae, the “concentrations at which not toxic, S. cerevisiae cytotoxicity testing” value is ≥ 100 µM. Besides, the “concentrations at which not toxic, human fibroblast cytotoxicity testing” value in the data set with human fibroblast was ≥ 100 µM.

As for `CC(C(=O)NCC(O)CO)c1ccc(Oc2cnc3cc(Cl)ccc3n2)cc1` (stereo not drawn) [NZ-534, 2-{4-[(6-chloroquinoxalin-2-yl)oxy]phenyl}-N-(2,3-dihydroxypropyl)propanamide], in the data set with S. cerevisiae, the “concentrations at which not toxic, S. cerevisiae cytotoxicity testing” value was ≥ 100 µM. Also, the “concentrations at which not toxic, human fibroblast cytotoxicity testing” value in the data set with human fibroblast (human) was ≥ 100 µM.

As to `CONC(=O)Cc1ccc(Oc2nc3ccc(Cl)cc3s2)cc1` [NZ-293, 2-{4-[(6-chloro-1,3-benzothiazol-2-yl)oxy]phenyl}-N-methoxyacetamide], the “concentrations at which not toxic, S. cerevisiae cytotoxicity testing” value in the data set with S. cerevisiae is ≥ 100 µM. Further, the “concentrations at which not toxic, human fibroblast cytotoxicity testing” value in the data set on human fibroblast (human) was ≥ 100 µM.

Turning to `O=C(O)Cc1ccc(Oc2nc3ccc(F)cc3s2)cc1` [NZ-299, 2-{4-[(6-fluoro-1,3-benzothiazol-2-yl)oxy]phenyl}acetic acid], in the data set with S. cerevisiae, the “concentrations at which not toxic, S. cerevisiae cytotoxicity testing” value is ≥ 100 µM. Also, the “concentrations at which not toxic, human fibroblast cytotoxicity testing” value in the data set with human fibroblast is ≥ 100 µM.

As to `O=C(O)C(O)c1ccc(Oc2nc3ccc(Cl)cc3s2)cc1` (stereo not drawn) [NZ-337, 2-{4-[(6-chloro-1,3-benzothiazol-2-yl)oxy]phenyl}-2-hydroxyacetic acid], the “concentrations at which not toxic, S. cerevisiae cytotoxicity testing” value with S. cerevisiae was ≥ 100 µM. Further, the “concentrations at which not toxic, human fibroblast cytotoxicity testing” value with human fibroblast (human) was ≥ 100 µM.

Consider `COc1ccc2nc(Oc3ccc(NC(=O)NC(C)C)cc3)sc2c1` [NZ-361, 1-{4-[(6-methoxy-1,3-benzathiazol-2-yl)oxy]phenyl}-3-(propan-2-yl)urea], for which the “concentrations at which not toxic, S. cerevisiae cytotoxicity testing” value with S. cerevisiae is ≥ 100 µM. The “concentrations at which not toxic, human fibroblast cytotoxicity testing” value in the data set with human fibroblast (human) was ≥ 100 µM.

For `CON(C)C(=O)COc1ccc(Oc2cnc3cc(Cl)ccc3n2)cc1` [NZ-290, 2-{4-[(6-chloroquinoxalin-2-yl)oxy]phenoxy}-N-methoxy-N-methylacetamide], the “concentrations at which not toxic, S. cerevisiae cytotoxicity testing” value in the data set with S. cerevisiae was ≥ 100 µM. The “concentrations at which not toxic, human fibroblast cytotoxicity testing” value in the data set with human fibroblast was ≥ 100 µM.

As to `CC(C(=O)O)c1ccc(Oc2cnc3cc(Cl)ccc3n2)cc1` (stereo not drawn) [NZ-309, 2-{4-[(6-chloroquinoxalin-2-yl)oxy]phenyl}propanoic acid], the “concentrations at which not toxic, S. cerevisiae cytotoxicity testing” value with S. cerevisiae was ≥ 100 µM. Also, the “concentrations at which not toxic, human fibroblast cytotoxicity testing” value with human fibroblast (human) was ≥ 100 µM.

`COC(=O)C(C)c1ccc(Oc2nc3ccc(F)cc3s2)cc1` (stereo not drawn) [NZ-328, methyl 2-{4-[(6-fluoro-1,3-benzothiazol-2-yl)oxy]phenyl}propanoate]: the “concentrations at which not toxic, S. cerevisiae cytotoxicity testing” value in the data set on S. cerevisiae is ≥ 100 µM. The “concentrations at which not toxic, human fibroblast cytotoxicity testing” value in the data set on human fibroblast (human) was ≥ 100 µM.

Consider `CC(C)(C)OC(=O)Nc1ccc(Oc2cnc3cc(Cl)ccc3n2)cc1` [NZ-321, tert-butyl N-{4-[(6-chloroquinoxalin-2-yl)oxy]phenyl}carbamate], for which the “concentrations at which not toxic, S. cerevisiae cytotoxicity testing” value in the data set with S. cerevisiae was ≥ 100 µM. Further, the “concentrations at which not toxic, human fibroblast cytotoxicity testing” value in the data set on human fibroblast (human) is ≥ 100 µM.

For `CC(C)ONC(=O)COc1ccc(Oc2cnc3cc(Cl)ccc3n2)cc1` [NZ-326, 2-{4-[(6-chloroquinoxalin-2-yl)oxy]phenoxy}-N-(propan-2-yloxy)acetamide], the “concentrations at which not toxic, S. cerevisiae cytotoxicity testing” value in the data set on S. cerevisiae is ≥ 100 µM. For the same compound, in the data set on human fibroblast, the “concentrations at which not toxic, human fibroblast cytotoxicity testing” value is ≥ 100 µM.

Turning to `CC(C)NC(=O)Cn1ccc(Oc2nc3ccc(Cl)cc3s2)cc1=O` [NZ-404, 2-{4-[(6-chloro-1,3-benzothiazol-2-yl)oxy]-2-oxo-1,2-dihydropyridin-1-yl}-N-(propan-2-yl)acetamide], the “concentrations at which not toxic, S. cerevisiae cytotoxicity testing” value with S. cerevisiae was ≥ 100 µM. Besides, the “concentrations at which not toxic, human fibroblast cytotoxicity testing” value with human fibroblast (human) is ≥ 100 µM.
